Laboratory results published in BigSolDB 2.1.

C[C@H]1[C@H](C)CC[C@]2(C(=O)O)CC[C@]3(C)C(=CC[C@@H]4[C@@]5(C)CC[C@H](O)C(C)(C)[C@@H]5CC[C@]43C)[C@H]12
solubility (mole fraction)
Conditions | 293.6 K | 300.1 K | 305.2 K | 310 K | 320.1 K | 323.2 K | 329.7 K
in ethanol | 0.000514 | 0.000766 | 0.000735 | 0.000761 | 0.00105 | 0.00105 | 0.00116
in ethyl acetate | 0.000777 | 0.000771 | 0.00101 | 0.00113 | 0.00155 | 0.00162 | 0.00186
in isopropanol | 0.00144 | 0.00181 | 0.00197 | 0.00213 | 0.00273 | 0.00275 | 0.00295
in methanol | 0.000723 | 0.000851 | 0.000931 | 0.00102 | 0.00133 | 0.00132 | 0.00146
